Assay results as given in US20230138047A1, “ANTI-CLAUDIN-1 MONOCLONAL ANTIBODIES FOR THE PREVENTION AND TREATMENT OF FIBROTIC DISEASES” (Université de Strasbourg, priority 2019, published 2023).
Structures can show the parent of a compound that is named as a salt.

Tests used:
[1] = test system: bleomycin-induced pulmonary fibrosis
Procedure: Materials and Methods Protocol to Examine the Effects of an anti-human CLDN1 Monoclonal Antibody in Preventing Fibrosis in a Bleomycin-Induced Pulmonary Fibrosis Model. Pathogen-free 6 weeks old female C57BL/6Jmice were obtained from Japan SLC, Inc. (Japan). At Day 0, 54 mice were induced to develop pulmonary fibrosis by a single intratracheal administration of bleomycin hydrochloride (BLM, Nippon Kayaku, Japan) in saline at a dose of 3.0 mg/kg, in a volume of 50 μL per animal using Microsprayer® (Penn-Century, USA). In each slot, the mice were randomized into 3 groups of 18 mice based on their body weight on the day before the start of treatment at Day 0. Individual body weights were measured daily during the experimental period. Survival, clinical signs and behaviour of mice were monitored daily.
Mice groups. Group 1 (Vehicle): Eighteen bleomycin-induced pulmonary fibrosis model mice were intraperitoneally administered vehicle [Saline] in a volume of […] once weekly from Day 0 to 20. […] Group 3 (Dexamethasone): Eighteen bleomycin-induced pulmonary fibrosis model mice were orally administered pure water supplemented with Dexamethasone at a dose of 0.25 mg/kg (in a volume of 10 mL/kg) once daily from Day 0 to 20. Mice in all groups were sacrificed at Day 21.
Survival, biochemical and histological analysis. […]

[2] = test system: BLM-induced skin fibrosis; experiment: Bleomycin-induced skin fibrosis model; format: in vivo, mouse; conditions: 50 mg/kg i.p., BLM for 4 weeks
From the text: BLM Model and Sampling. As indicated on the scheme presented on FIG. 6, the BLM is subcutaneously injected every other day into the pre-shaved back of mice for 4 weeks. The injection sites are located at the corners of a 1.5 cm^2-square shaved area and used in rotation (corner 1, corner 2, corner 3, corner 4, corner 1, etc). A 5-mm circle is clipped using a dermal punch and used for collagen quantification. The remaining intact area is cut out into 3 rectangles, one for histology and two for biochemical analyses.
Effects of Imatinib on Skin Fibrosis. Imatinib mesylate is a tyrosine kinase inhibitor against c-Abl, PDGFR, and several other tyrosine kinases (Alfiya et al., Arthritis Rheum., 2009, 60: 219). c-Abl is crucial for induction of ECM proteins through the TGF-β pathway. Its inhibition may reduce the synthesis of EMC components. Imatinib interferes with PDGF signalling by blocking the tyrosine kinase activity of PDGFR (Alfiya et al., Arthritis Rheum., 2009, 60: 219). The study design is presented on FIG. 7.

[3] = test system: bleomycin-induced pulmonary fibrosis; experiment: Bleomycin-induced pulmonary fibrosis model, late treatment (Day 7 to 20); format: in vivo, C57BL/6J mice; conditions: mean±SD, Day 21
From the text: Protocol to Examine the Effects of anti-human CLDN1 Monoclonal Antibody in Treating Fibrosis in a Bleomycin-Induced Pulmonary Fibrosis Model. Pathogen-free 6 weeks old female C57BL/6Jmice will be obtained from Japan SLC, Inc. (Japan). […] The mice were transferred to a clean cage (resting cage) and kept until recovery from anesthesia. The bleomycin administration took place on two separate days, with equal numbers of mice assigned to each day. […] Mice groups. […] Survival, biochemical and histological analysis. […] Lung hydroxyproline content was assessed according to a routine method. Statistical tests. Statistical tests were performed using Kruskal-Wallis test.

[4] = test system: UUO-induced renal interstitial fibrosis; experiment: Unilateral ureteral obstruction (UUO)-induced renal interstitial fibrosis; format: in vivo
Procedure: Test Substances. A murinized version of an anti CLDN1 mAb was synthetized at the Inventors' laboratory and used in the present study. […] To prepare dosing solution, the anti-CLDN1 mAb was diluted with a saline solution used as vehicle. Telmisartan (Micardis®) was purchased from Boehringer Ingelheim GmbH (Germany) and dissolved in pure water.
Unilateral Ureteral Obstruction (UUO) Surgery. On Day 0, UUO surgery was performed under three types of mixed anesthetic agents (medetomidine, midazolam, butorphanol). After shaving the hair, the abdomen was cut open and the left ureter was exteriorized. The ureter was ligated by 4-0 silk sutures at two points. The peritoneum and the skin were closed with sutures, and the mice were transferred to a clean cage and kept until recovery from anesthesia.
Route of Drug Administration. The anti-CLDN1 mAb was administered intraperitoneally at a volume of 100 μL/mouse. Telmisartan was administered orally at a volume of 10 μL/mouse.
Treatment Doses. The anti-CLDN1 mAb was administered at a dose of 500 μg/100 μL/mouse. Telmisartan was administered at a dose of 30 mg/kg once daily.
Animals. Seven-week-old female C57BL/6J mice were obtained from Japan SLC, Inc. (Japan). Animals were housed and fed with a normal diet (CE-2; CLEA Japan, Japan) under controlled conditions. All animals used in the study were housed and cared for in accordance with the Japanese Pharmacological Society Guidelines for Animal Use. The animals were maintained in a SPF facility under controlled conditions of temperature (23±3° C.), humidity (50±20%), lighting (12-hour artificial light and dark cycles; light from 8:00 to 20:00) and air exchange. A high pressure was maintained in the experimental room to prevent contamination of the facility. The animals were housed in TPX cages (CLEA Japan) with a maximum of 4 mice per cage. Sterilized Paper-Clean (Japan SLC) was used for bedding and replaced once a week.
Measurement of Plasma Biochemistry. For plasma biochemistry, non-fasting blood was collected in polypropylene tubes with anticoagulant (Novo-Heparin, Mochida Pharmaceutical Co. Ltd., Japan) and centrifuged at 1,000×g for 15 minutes at 4° C. The supernatant was collected and stored at −80° C. until use. Plasma urea nitrogen was measured by FUJI DRI-CHEM 7000 (Fujifilm, Japan).
Measurement of Kidney Biochemistry. To quantify kidney hydroxyproline content, frozen left kidney samples were processed by an alkaline-acid hydrolysis method as follows. Kidney samples were dissolved in 2N NaOH at 65° C., and autoclaved at 121° C. for 20 minutes. The lysed samples (150 μL) were acid-hydrolyzed with 150 μL of 6N HCl at 121° C. for 20 minutes, and neutralized with 150 μL of 4N NaOH containing 10 mg/mL activated carbon. AC buffer (2.2M acetic acid/0.48M citric acid, 150 μL) was added to the samples, followed by centrifugation to collect the supernatant. A standard curve of hydroxyproline was constructed with serial dilutions of trans-4-hydroxy-L-proline (Sigma-Aldrich, USA) starting at 16 μg/mL. The prepared samples and standards (each 400 μL) were mixed with 400 μL chloramine T solution (Nacalai Tesque Inc., Japan) and incubated for 25 minutes at room temperature. The samples were then mixed with Ehrlich's solution (400 μL) and heated at 65° C. for 20 minutes for color development. After samples were cooled on ice and centrifuged to remove precipitates, the optical density of each supernatant was measured at 560 nm. The concentrations of hydroxyproline were calculated from the hydroxyproline standard curve. Protein concentrations of kidney samples were determined using a BCA protein assay kit (Thermo Fisher Scientific, USA) and used to normalize the calculated hydroxyproline values. Kidney hydroxyproline contents were expressed as μg per mg protein.
Histopathological Analyses. For PAS staining, sections were cut from paraffin blocks and stained with Schiff's reagent (Wako Pure Chemical Industries) according to the manufacturer's instructions. […]

human Claudin-1 (CLDN1) [5] = target: T1, human Claudin-1 (CLDN1) (human, UniProt O95832 1-211); experiment: flow cytometry on A549 lung cells, PE median fluorescence, Michaelis-Menten fit
T1 construct: whole, on cells; Tight junction membrane protein; endogenously expressed on the cell lines, primary cells and tissues used; also called CLDNA
T1 sequence (looked up): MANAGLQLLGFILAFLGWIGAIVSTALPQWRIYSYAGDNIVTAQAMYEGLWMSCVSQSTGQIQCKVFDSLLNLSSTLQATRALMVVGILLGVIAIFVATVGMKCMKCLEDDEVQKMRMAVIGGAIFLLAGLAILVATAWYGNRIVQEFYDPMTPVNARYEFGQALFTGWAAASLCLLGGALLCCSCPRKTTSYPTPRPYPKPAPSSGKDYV
Procedure: (§1) FIG. 4. Binding Properties of Humanized CLDN1-specific MAbs Targeting CLDN1 Expressed on Kidney RPTEC/TERT1 and Lung A549 Cell Lines. Cells were incubated with increasing concentrations of humanized H3L3 CLDN1-specific mAb, as indicated. Representative histograms show binding of humanized H3L3 CLDN1-specific mAb at the saturation point for each specific cells line: (A) RPTEC/TERT1 (50 μg/mL) and (B) A549 (20 μg/mL). Binding was measured by flow cytometry after incubation with PE-labelled anti-human and analyzed with Cytoflex and FlowJo V10. […] The graphs show binding of humanized H3L3 CLDN1-specific mAb until the saturation point for each specific cell line.
(§2) Binding Studies. Cells were de-attached using a solution of EDTA (4 mM) and re-suspended in PBS containing 1% FBS at 4° C. Then, 150,000 cells were incubated with increasing concentrations of the humanized H3L3 CLDN1-specific mAb (see WO/2017/162678) and the binding signals were read by flow cytometry after incubation with PE-labelled anti-human using a dilution of 1:100 and analyzed with Cytoflex and FlowJo V10. Two washes with PBS containing 1% FBS were performed after every antibody incubation. A binding curve for each cell line was built using the PE median fluorescence intensity (MFI) and the Kd of the interaction was calculated by applying the Michaelis-Menten mathematical model in R 3.5.1.

human Claudin-1 (CLDN1) [6] = target: T1, human Claudin-1 (CLDN1); experiment: flow cytometry on RPTEC/TERT1 kidney cells, PE median fluorescence, Michaelis-Menten fit
Procedure: as §1, §2

[7] = Antibody biodistribution in mice (Alexa-fluor 750 label, ex vivo organ fluorescence); design: species or system Balb/c mice; conditions: 500 μg i.p.; organs harvested at 24 hours and 48 hours
Procedure: Reagents and Antibodies. The anti-Claudin-1 monoclonal antibody (anti-CLDN1 mAb-OM-7D3-B3) was produced as previously described (Fofana et al., Gastroenterology, 2010, 139: 953-964, e1-4). Control mAb (rat IgG2b clone LTF-25, Bio X Cell) was also used.
Antibody biodistribution. The antibodies were labeled with Alexa-fluor 750 (RD-Biotech, Besangon, France). Eight week-old Balb/c mice were injected intraperitoneally with 500 μg of Alexa-fluor 750-labeled CLDN1-specific or control mAb. Organs were harvested 24 hours and 48 hours as previously described (Krieger et al., Hepatology, 2010, 51: 1144-1157) and ex vivo organ-specific fluorescence was detected with an IVIS Lumina 50 (Xenogen-Caliper-Perkin-Elmer) and expressed as average efficiency.
Statistical Analyses. The Mann-Whitney test was used. A p-value <0.05 was considered significant. Statistical analyzes were performed with GraphPad Prism 6 software.

[8] = kidney sections versus Vehicle group

C[C@@H]1C[C@H]2[C@@H]3CCC4=CC(=O)C=C[C@]4(C)[C@@]3(F)[C@@H](O)C[C@]2(C)[C@@]1(O)C(=O)CO [Dexamethasone]
mice found dead before reaching Day 21 ([1]; 18 mice per group): Ten out of 18
survival rate compared with Vehicle group ([1]; Kaplan-Meier, Log Rank Test): significant decrease

Cc1ccc(NC(=O)c2ccc(CN3CCN(C)CC3)cc2)cc1Nc1nccc(-c2cccnc2)n1 [Imatinib, Imatinib mesylate]
dermal thickness ([2]; HE staining): significant decrease
skin fibrosis area ([2]; Masson staining): significant decrease

COC(=O)c1ccc2c(c1)NC(=O)/C2=C(\Nc1ccc(N(C)C(=O)CN2CCN(C)CC2)cc1)c1ccccc1 [Nintedanib]
lung hydroxyproline levels [3]: 51.3±9.0

CCCc1nc2c(C)cc(-c3nc4ccccc4n3C)cc2n1Cc1ccc(-c2ccccc2C(=O)O)cc1 [Telmisartan]
Sirius red-positive area ([4]; fibrosis area, mean ± S.D., n = 8): 2.44 ± 1.19%
inflammatory cell infiltration, F4/80 immunostaining [4, 8]: lower than that in the Vehicle group
inflammatory cell infiltration, PAS staining [4, 8]: lower than in the Vehicle group
Kidney hydroxyproline ([4]; left kidney, mean ± S.D., n = 8): 6.19 ± 2.31 μg/mg total protein
Right kidney weight ([4]; mean ± S.D., n = 8): 139 ± 9 mg
Body weight ([4]; mouse, in vivo): 18.7 ± 1.1 g
Plasma urea nitrogen ([4]; mouse, in vivo): 33.9 ± 5.2 mg/dL
Left kidney weight ([4]; obstructed kidney, mean ± S.D., n = 8): 630 ± 160 mg

B1: humanized H3L3 CLDN1-specific mAb (antibody, V domains shown)
VH: QVQLVESGGGVVQPGRSLRLSCLGSGFSFSSYGMNWVRQAPGKGLEWVASISPSGSYFYYADSVKGRFTISRDNSKNTLYLQMTSLRAEDTAIYYCARLPGFNPPFDHWGQGTLVTVSS
VL: DIQMTQSPSSLSASVGDRVTITCKASQNVGGNVDWYQWKPGKAPKLLIYGASNRYTGVPDRFRGSGSGTDFTLTISSLQPEDVATYYCLQYKNNPWTFGGGTKVEIK
notes: also called anti-CLDN1 mAb H3L3; humanized anti-CLDN1 mAb
Kd (human Claudin-1 (CLDN1) [5]): 16.3 nM
Kd (human Claudin-1 (CLDN1) [6]): 53 nM

B2: OM-7D3-B3: rat monoclonal antibody against human Claudin-1 secreted by hybridoma DSM ACC2938; VH SEQ ID NO: 1, VL SEQ ID NO: 2 (antibody, V domains shown)
VH: EVQLVESGGGLVQPGRSLKLSCLGSGFSFSSYGMNWIRQAPGKGLEWVASISPSGSYFYYADSVKGRFTISRENAKNTLYLQMTSLRAEDTALYYCARLPGFNPPFDHWGQGVVVTVSS
VL: NTVMTQSPTSMFMSVGDRVTMNCKASQNVGGNVDWYQWKPGQSPKLLMYGASNRYTGVPDRFRGSGSGTDFTLTISNMQTEDLAVYYCLQYKNNPWTFGGGTKVELK
modifications: variable heavy chain of OM-7D3-B3; variable light chain of OM-7D3-B3
organ enrichment of labeled antibody versus control mAb [7]: enrichment in the anti-CLDN1 monoclonal antibody was observed in skin, kidneys, lungs, intestines and liver
